Data published in PubChem BioAssay AID1919016 (Molecular Pharmacology Branch, DTP, NCI, 2023).

Test system: NCI-H196 complex spheroid growth, percent test/control
Assay: Anticancer human tumor NCI-H196 cell line growth inhibition [AhR];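 note: seven days of drug exposure starting three days after plating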;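 for viability, T/C: 100% = DMSO vehicle control wells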
Settings: for IC50: curve of first compound; for viability, T/C: stronger effect = lower value
Procedure, shortened: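 Spheroids combined tumor cells with HUVEC endothelial cells and human MSCs as stroma. AhR antagonists were paired with standard or investigational drugs, each dosed in half-log steps down from near clinical Cmax, or from 10 microM where Cmax was unknown.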

[1] = second compound 0.1 µM, first compound 0.0316 µM
[2] = second compound 0.1 µM, first compound 0.1 µM
[3] = second compound 0.1 µM, first compound 0.316 µM
[4] = second compound 0.1 µM, first compound 1 µM
[5] = second compound 0.1 µM, first compound 3.16 µM
[6] = second compound 0.1 µM, first compound 10 µM
[7] = second compound 0.316 µM, first compound 0.0316 µM
[8] = second compound 0.316 µM, first compound 0.1 µM
[9] = second compound 0.316 µM, first compound 0.316 µM
[10] = second compound 0.316 µM, first compound 1 µM
[11] = second compound 0.316 µM, first compound 3.16 µM
[12] = second compound 0.316 µM, first compound 10 µM
[13] = second compound 1 µM, first compound 0.0316 µM
[14] = second compound 1 µM, first compound 0.1 µM
[15] = second compound 1 µM, first compound 0.316 µM
[16] = second compound 1 µM, first compound 1 µM
[17] = second compound 1 µM, first compound 3.16 µM
[18] = second compound 1 µM, first compound 10 µM
[19] = second compound 3.16 µM, first compound 0.0316 µM
[20] = second compound 3.16 µM, first compound 0.1 µM
[21] = second compound 3.16 µM, first compound 0.316 µM
[22] = second compound 3.16 µM, first compound 1 µM
[23] = second compound 3.16 µM, first compound 3.16 µM
[24] = second compound 3.16 µM, first compound 10 µM
[25] = second compound 10 µM, first compound 0.0316 µM
[26] = second compound 10 µM, first compound 0.1 µM
[27] = second compound 10 µM, first compound 0.316 µM
[28] = second compound 10 µM, first compound 1 µM
[29] = second compound 10 µM, first compound 3.16 µM
[30] = second compound 10 µM, first compound 10 µM

Compound	IC50 (second compound 0.1 µM)	IC50 (second compound 0.316 µM)	IC50 (second compound 1 µM)	IC50 (second compound 3.16 µM)	IC50 (second compound 10 µM)	viability, T/C [1]	viability, T/C [2]	viability, T/C [3]	viability, T/C [4]	viability, T/C [5]	viability, T/C [6]	viability, T/C [7]	viability, T/C [8]	viability, T/C [9]	viability, T/C [13]	viability, T/C [14]	viability, T/C [19]	viability, T/C [20]	viability, T/C [25]	viability, T/C [26]	further results
CC1(C)CCC(CN2CCN(c3ccc(C(=O)NS(=O)(=O)c4ccc(NCC5CCOCC5)c([N+](=O)[O-])c4)c(Oc4cnc5[nH]ccc5c4)c3)CC2)=C(c2ccc(Cl)cc2)C1 + Cc1ccccc1N=Nc1ccc(NC(=O)c2ccnn2C)c(C)c1	> 10 µM	> 10 µM	> 10 µM	> 10 µM	> 10 µM	111%	109%	109%	97%	115%	66%	101%	106%	99.9%	100%	107%	104%	111%	95.6%	99.2%	viability, T/C [10]: 102%; viability, T/C [11]: 108%; viability, T/C [12]: 74.9%; viability, T/C [15]: 108%; viability, T/C [16]: 102%; viability, T/C [17]: 102%; viability, T/C [18]: 75.5%; viability, T/C [21]: 107%; viability, T/C [22]: 104%; viability, T/C [23]: 104%; viability, T/C [24]: 67.2%; viability, T/C [27]: 100%; viability, T/C [28]: 99.8%; viability, T/C [29]: 100%; viability, T/C [30]: 74.6%
Cn1ncnc1C1c2n[nH]c(=O)c3cc(F)cc(c23)NC1c1ccc(F)cc1 (stereo not given) + Cc1ccccc1N=Nc1ccc(NC(=O)c2ccnn2C)c(C)c1	> 0.1 µM	> 0.1 µM	> 0.1 µM	> 0.1 µM	> 0.1 µM	102%	103%					101%	104%		102%	106%	93.5%	102%	92.8%	92.6%	viability, T/C (second compound 0.1 µM, first compound 0.000316 µM): 96.3%; viability, T/C (second compound 0.1 µM, first compound 0.001 µM): 112%; viability, T/C (second compound 0.1 µM, first compound 0.00316 µM): 105%; viability, T/C (second compound 0.1 µM, first compound 0.01 µM): 101%; viability, T/C (second compound 0.316 µM, first compound 0.000316 µM): 108%; viability, T/C (second compound 0.316 µM, first compound 0.001 µM): 107%; viability, T/C (second compound 0.316 µM, first compound 0.00316 µM): 108%; viability, T/C (second compound 0.316 µM, first compound 0.01 µM): 106%; viability, T/C (second compound 1 µM, first compound 0.000316 µM): 102%; viability, T/C (second compound 1 µM, first compound 0.001 µM): 102%; viability, T/C (second compound 1 µM, first compound 0.00316 µM): 109%; viability, T/C (second compound 1 µM, first compound 0.01 µM): 107%; viability, T/C (second compound 3.16 µM, first compound 0.000316 µM): 94.2%; viability, T/C (second compound 3.16 µM, first compound 0.001 µM): 108%; viability, T/C (second compound 3.16 µM, first compound 0.00316 µM): 112%; viability, T/C (second compound 3.16 µM, first compound 0.01 µM): 98.2%; viability, T/C (second compound 10 µM, first compound 0.000316 µM): 94.2%; viability, T/C (second compound 10 µM, first compound 0.001 µM): 102%; viability, T/C (second compound 10 µM, first compound 0.00316 µM): 96.7%; viability, T/C (second compound 10 µM, first compound 0.01 µM): 94.7%
NS(=O)(=O)OCC1CC(n2ccc3c(NC4CCc5ccccc54)ncnc32)CC1O (stereo not given) + Cc1ccccc1N=Nc1ccc(NC(=O)c2ccnn2C)c(C)c1	> 10 µM	> 10 µM	> 10 µM	> 10 µM	2.07 µM	83.7%	84.2%	76.6%	55.9%	70.2%	70%	79.7%	81.2%	81.5%	90.1%	87.6%	82.4%	90.7%	83.8%	87.1%	viability, T/C [10]: 67.4%; viability, T/C [11]: 74.6%; viability, T/C [12]: 61%; viability, T/C [15]: 85.9%; viability, T/C [16]: 60.6%; viability, T/C [17]: 73.7%; viability, T/C [18]: 60.8%; viability, T/C [21]: 81.6%; viability, T/C [22]: 61.5%; viability, T/C [23]: 60.9%; viability, T/C [24]: 58.8%; viability, T/C [27]: 68.2%; viability, T/C [28]: 55.5%; viability, T/C [29]: 46.7%; viability, T/C [30]: 47.4%
